Measurements as given in PubChem BioAssay AID256 (DTP/NCI, 2004).
Several values for one entry are separate records, joined by “and”; a condition that tells them apart may be missing. Identical values can stand only once. Toxic doses and inconclusive results are not listed. The calls were made as follows: active = survival T/C of 150% or more; inactive = T/C below 125% in these data.

System: CD2F1 mice, L1210 leukemia ip, survival T/C
Assay: NCI In Vivo Anticancer Drug Screen. Data for tumor model L1210 Leukemia (intraperitoneal) in CD2F1 (CDF1) mice
Settings: higher = longer survival
Procedure, shortened: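 Read-out first: treated-group measurement over vehicle-control measurement, expressed as a ratio. Animals bore a transplanted tumor line and were dosed with compound or vehicle.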

[1] = endpoint: mean survival time, dose: 100.0 mg/kg/injection, schedule: Q01DX009 (ip), vehicle: saline with Tween-80
[2] = endpoint: mean survival time, dose: 100.0 mg/kg/injection, schedule: Q04DX003 (ip), vehicle: saline with Tween-80
[3] = endpoint: mean survival time, dose: 200.0 mg/kg/injection, schedule: Q01DX009 (ip), vehicle: saline with Tween-80
[4] = endpoint: mean survival time, dose: 200.0 mg/kg/injection, schedule: Q04DX003 (ip), vehicle: saline with Tween-80
[5] = endpoint: mean survival time, dose: 400.0 mg/kg/injection, schedule: Q01DX009 (ip), vehicle: saline with Tween-80
[6] = endpoint: mean survival time, dose: 400.0 mg/kg/injection, schedule: Q04DX003 (ip), vehicle: saline with Tween-80
[7] = endpoint: mean survival time, dose: 50.0 mg/kg/injection, schedule: Q01DX001 (ip), vehicle: saline with Tween-80
[8] = endpoint: mean survival time, dose: 100.0 mg/kg/injection, schedule: Q01DX001 (ip), vehicle: saline with Tween-80
[9] = endpoint: mean survival time, dose: 100.0 mg/kg/injection, schedule: Q01DX001 (ip), vehicle: saline
[10] = endpoint: mean survival time, dose: 200.0 mg/kg/injection, schedule: Q01DX001 (ip), vehicle: saline
[11] = endpoint: mean survival time, dose: 400.0 mg/kg/injection, schedule: Q01DX001 (ip), vehicle: saline
[12] = endpoint: mean survival time, dose: 200.0 mg/kg/injection, schedule: Q01DX001 (ip), vehicle: saline with Tween-80
[13] = endpoint: mean survival time, dose: 100.0 mg/kg/injection, schedule: Q04DX003 (ip), vehicle: saline
[14] = endpoint: mean survival time, dose: 200.0 mg/kg/injection, schedule: Q04DX003 (ip), vehicle: saline
[15] = endpoint: mean survival time, dose: 400.0 mg/kg/injection, schedule: Q04DX003 (ip), vehicle: saline

Measured: T/C

O=C(NCCI)NC1C(O)OC(CO)C(O)C1O (centres undefined)
inactive: endpoint: mean survival time, dose: 12.5 mg/kg/injection, schedule: Q01DX009 (ip), vehicle: water 93 % of control | endpoint: mean survival time, dose: 25.0 mg/kg/injection, schedule: Q01DX009 (ip), vehicle: water 92 % of control | endpoint: mean survival time, dose: 50.0 mg/kg/injection, schedule: Q01DX009 (ip), vehicle: water 93 % of control | endpoint: mean survival time, dose: 100.0 mg/kg/injection, schedule: Q01DX009 (ip), vehicle: water 95 % of control | endpoint: mean survival time, dose: 200.0 mg/kg/injection, schedule: Q01DX009 (ip), vehicle: water 89 % of control

CC(C)(C)SC1C(O)C(CO)OC1n1ccc(N)nc1=O (centres undefined)
inactive: endpoint: median survival time, dose: 12.5 mg/kg/injection, schedule: Q01DX005 (ip), vehicle: saline 103 % of control | endpoint: median survival time, dose: 25.0 mg/kg/injection, schedule: Q01DX005 (ip), vehicle: saline 96 % of control | endpoint: median survival time, dose: 50.0 mg/kg/injection, schedule: Q01DX005 (ip), vehicle: saline 103 % of control | endpoint: median survival time, dose: 100.0 mg/kg/injection, schedule: Q01DX005 (ip), vehicle: saline 108 % of control | endpoint: median survival time, dose: 200.0 mg/kg/injection, schedule: Q01DX005 (ip), vehicle: saline 103 % of control

COC(=O)C1=C(NC(=O)Nc2ccc(OC)cc2)OC(C)(C)C1c1ccc(Cl)cc1 (centres undefined)
inactive: [1] 93 % of control | [2] 92 % of control | [3] 93 % of control | [4] 87 % of control | [5] 94 % of control | [6] 92 % of control

O=C(O)CS(=O)(=O)CC(=O)O
inactive: endpoint: mean survival time, dose: 25.0 mg/kg/injection, schedule: Q01DX001 (ip), vehicle: saline with Tween-80 93 % of control | [7] 104 % of control | endpoint: mean survival time, dose: 50.0 mg/kg/injection, schedule: Q01DX009 (ip), vehicle: saline 90 % of control | [8] 102 % of control | endpoint: mean survival time, dose: 100.0 mg/kg/injection, schedule: Q01DX009 (ip), vehicle: saline 89 % of control | endpoint: mean survival time, dose: 200.0 mg/kg/injection, schedule: Q01DX009 (ip), vehicle: saline 93 % of control

CCNCc1ccc(OC)cc1
inactive: endpoint: mean survival time, dose: 25.0 mg/kg/injection, schedule: Q04DX003 (ip), vehicle: saline with Tween-80 106 % of control | endpoint: mean survival time, dose: 50.0 mg/kg/injection, schedule: Q04DX003 (ip), vehicle: saline with Tween-80 104 % of control | [2] 93 % of control

CCOC(=O)Cc1nnc(N)s1
inactive: [2] 96 % of control | [4] 100 % of control | [6] 102 % of control

O=c1[nH]c2ccccc2o1
inactive: endpoint: mean survival time, dose: 12.5 mg/kg/injection, schedule: Q01DX009 (iv), vehicle: methylcellulose (MC) 95 % of control | endpoint: mean survival time, dose: 25.0 mg/kg/injection, schedule: Q01DX009 (iv), vehicle: methylcellulose (MC) 90 % of control | endpoint: mean survival time, dose: 50.0 mg/kg/injection, schedule: Q01DX009 (iv), vehicle: methylcellulose (MC) 94 % of control

O=C(O)CN(CC(=O)O)CC(O)CN(CC(=O)O)CC(=O)O
inactive: [9] 98 % of control | [10] 105 % of control | [11] 93 % of control

CC(CO)CCC(=O)C(C)C1C(=O)CC2[C@H]3CC=C4C[C@H](O)CC[C@@]4(C)C3CC[C@@]12C (some centres undefined)
inactive: [7] 94 % of control | [8] 97 % of control | [12] 95 % of control

CCOC(=O)C(N=O)C(=O)c1ccccc1 (centres undefined)
inactive: endpoint: mean survival time, dose: 100.0 mg/kg/injection, schedule: Q01DX009 (ip), vehicle: saline sonified 95 % of control | [2] 96 % of control | endpoint: mean survival time, dose: 200.0 mg/kg/injection, schedule: Q01DX009 (ip), vehicle: saline sonified 101 % of control | [4] 95 % of control | endpoint: mean survival time, dose: 400.0 mg/kg/injection, schedule: Q01DX009 (ip), vehicle: saline sonified 92 % of control | [6] 86 % of control

O.O.[Cl][Pt+2][Cl].[NH-]C1CCCCC1[NH-] (centres undefined)
inactive: endpoint: mean survival time, dose: 2.5 mg/kg/injection, schedule: Q04DX003 (ip), vehicle: dextrose 110 % of control | endpoint: mean survival time, dose: 5.0 mg/kg/injection, schedule: Q04DX003 (ip), vehicle: dextrose 113 % of control | endpoint: mean survival time, dose: 80.0 mg/kg/injection, schedule: Q04DX003 (ip), vehicle: dextrose 96 % of control | endpoint: median survival time, dose: 1.25 mg/kg/injection, schedule: Q04DX003 (ip), vehicle: saline 109 % of control | endpoint: median survival time, dose: 2.5 mg/kg/injection, schedule: Q04DX003 (ip), vehicle: saline 110 % of control | endpoint: median survival time, dose: 4.0 mg/kg/injection, schedule: Q04DX003 (ip), vehicle: saline 110 % of control [middle of 5 runs] | endpoint: median survival time, dose: 5.0 mg/kg/injection, schedule: Q04DX003 (ip), vehicle: saline 119 % of control | endpoint: median survival time, dose: 8.0 mg/kg/injection, schedule: Q04DX003 (ip), vehicle: saline 120 % of control | endpoint: median survival time, dose: 64.0 mg/kg/injection, schedule: Q04DX003 (ip), vehicle: saline 98 % of control and 120 % of control and 124 % of control

[O-][N+](=C(c1ccccc1)c1ccccc1)c1ccccc1
inactive: endpoint: mean survival time, dose: 75.0 mg/kg/injection, schedule: Q01DX009 (ip), vehicle: saline with Tween-80 96 % of control | endpoint: mean survival time, dose: 150.0 mg/kg/injection, schedule: Q01DX009 (ip), vehicle: saline with Tween-80 94 % of control | endpoint: mean survival time, dose: 300.0 mg/kg/injection, schedule: Q01DX009 (ip), vehicle: saline with Tween-80 94 % of control

CCOC(=O)C[n+]1ccc(C(=O)c2cc3ccccc3[nH]2)cc1
inactive: [8] 97 % of control | [12] 101 % of control | endpoint: mean survival time, dose: 400.0 mg/kg/injection, schedule: Q01DX001 (ip), vehicle: saline with Tween-80 93 % of control

NCCCC(N)(C(=O)O)C(F)F (centres undefined)
inactive: endpoint: median survival time, dose: 50.0 mg/kg/injection, schedule: Q01DX009 (ip), vehicle: distilled water + alcohol 102 % of control | endpoint: median survival time, dose: 100.0 mg/kg/injection, schedule: Q01DX009 (ip), vehicle: distilled water + alcohol 102 % of control | endpoint: median survival time, dose: 200.0 mg/kg/injection, schedule: Q01DX009 (ip), vehicle: distilled water + alcohol 105 % of control | endpoint: median survival time, dose: 400.0 mg/kg/injection, schedule: Q01DX009 (ip), vehicle: distilled water + alcohol 113 % of control | endpoint: median survival time, dose: 800.0 mg/kg/injection, schedule: Q01DX009 (ip), vehicle: distilled water + alcohol 103 % of control | endpoint: median survival time, dose: 1.0 % drug in feed or water or air, schedule: Q#C X 1 (adlb), vehicle: water 103 % of control | endpoint: median survival time, dose: 3.0 % drug in feed or water or air, schedule: Q#C X 1 (adlb), vehicle: water 116 % of control

CN(N)c1nc(N)c(C#N)c(C#N)c1C#N
inactive: endpoint: mean survival time, dose: 50.0 mg/kg/injection, schedule: Q01DX001 (ip), vehicle: saline 97 % of control | [9] 101 % of control | [10] 101 % of control | [11] 97 % of control

O=C1CCCC[CH]1[Hg][Cl] (centres undefined)
inactive: endpoint: mean survival time, dose: 1.25 mg/kg/injection, schedule: Q01DX009 (ip), vehicle: saline 95 % of control | endpoint: mean survival time, dose: 2.5 mg/kg/injection, schedule: Q01DX009 (ip), vehicle: saline 107 % of control

CCCCCCCCC(O)CCC (centres undefined)
inactive: [13] 96 % of control | [14] 98 % of control | [15] 100 % of control

COC(=O)CC(=O)C1(C)CC1
inactive: [13] 90 % of control | [14] 93 % of control | [15] 96 % of control

CCCOC(=O)C1CCCCC1C(=O)OCCC (centres undefined)
inactive: [13] 98 % of control | [14] 98 % of control | [15] 104 % of control

O=C(O)C1=C(C(=O)O)C2C3CC4C(C13)C42
inactive: [2] 101 % of control | [4] 100 % of control | [6] 88 % of control

Cc1cc(=S)n(C)c2ccccc12
inactive: [1] 94 % of control | [2] 93 % of control | [3] 93 % of control | [4] 96 % of control | [5] 98 % of control | [6] 88 % of control

O=[P+](O)O[P+](=O)O.O=[P+](O)O[P+](=O)O.O=[P+](O)O[P+](=O)O.O=[P+](O)O[P+](=O)O.[Cl][Pt].[Cl][Pt]
inactive: endpoint: median survival time, dose: 3.12 mg/kg/injection, schedule: Q04DX003 (ip), vehicle: saline 102 % of control | endpoint: median survival time, dose: 6.25 mg/kg/injection, schedule: Q04DX003 (ip), vehicle: saline 96 % of control | endpoint: median survival time, dose: 12.5 mg/kg/injection, schedule: Q04DX003 (ip), vehicle: saline 95 % of control | endpoint: median survival time, dose: 25.0 mg/kg/injection, schedule: Q04DX003 (ip), vehicle: saline 97 % of control | endpoint: median survival time, dose: 50.0 mg/kg/injection, schedule: Q04DX003 (ip), vehicle: saline 104 % of control
